Measurements: patent publication US20090298947A1, “POLYMORPHIC AND AMORPHOUS FORMS OF […] AMORPHOUS COMPOSITIONS” (PLIVA HRVATSKA D.O.O., priority 2008, published 2009)

Experiments:
[1] = Interconversion of form II to form I in stirred suspension, crystal form determined using XRPD; assay type: physicochemical
Description: Samples after being powdered in a mortar and pestle are applied directly on silicon plate holder. The X-ray powder diffraction pattern was measured with Philips X'Pert PRO X-ray powder diffractometer, equipped with Cu irradiation source=1.54060 ? ( ? ngstrom), X'C.elerator (2.022° 2Θ) detector. Scanning parameters: angle range: 3-40 deg., step size 0.0167, time per step 100 s, continuous scan. The accuracy of peak positions was defined as ±0.2 degrees due to experimental differences like instrumentations and sample preparations.
(§1) 27.0 g of Lacosamide was dissolved in 300 ml of ethyl acetate. Solution crystallized by cooling at about 42° C. Suspension was cooled to 40° C. and samples were taken in time intervals, filtered and crystal form was determined using XRPD. […] Crystals were filtered, washed with ethyl acetate and dried at 50° C./vacuo yielding 20.0 g Lacosamide form I.
as §1, with “30.0” for “27.0”, “239” for “300”, “acetate and 1 ml of water.” for “acetate.”, “46°” for “42°”, “with cold” for “with”, “22.9” for “20.0”

[2] = Temperature dependent X-ray powder diffraction, heating of form II; assay type: physicochemical
Description: Temperature dependent X-ray powder diffraction (TDXD) was carried out with a Bruker AXS D8 θ-θ powder diffractometer with parafocusing Bragg-Brentano geometry using CuKα radiation (λ=1.5418 Å, U=34 kV, I=20 mA). The sample was placed on a Pt/Rh ribbon in a MRI high-temperature oven-camera and VPSlits were used to fix the constant irradiated length (20 mm). Data were scanned with an ultrafast detector LynxEye over the angular range 3-38° (2θ) with a step size of 0.0196° (2θ) and a counting time of 58.6 s step^−1. The heating and cooling process was controlled by Eurotherm 2404.
The sample of form II lacosamide (50 mg) was placed on a Pt/Rh ribbon in a MRI high-temperature oven-camera, and heated at rate of 10° C./min up to 100° C. The heating and cooling process was controlled by Eurotherm 2404.

For `COC[C@@H](NC(C)=O)C(=O)NCc1ccccc1` [Lacosamide, (R)-N-benzyl-2-acetamido-3-methoxypropionamide], the “crystal form determined using XRPD” value ([1]; suspension in ethyl acetate and water (239 ml/1 ml), after 2 hours at 40° C.) was “form I”, the “crystal form determined using XRPD” value ([1]; suspension in ethyl acetate and water (239 ml/1 ml), sample taken immediately when temperature reached 40° C.) was “mixture of form I and form II” and the “crystal form determined using XRPD” value ([1]; suspension in ethyl acetate, after 2 hours at 40° C.) was “mixture of form I and form II”. For the same compound, the “crystal form determined using XRPD” value ([1]; suspension in ethyl acetate, after 4 hours at 40° C.) was “form I” and the “crystal form determined using XRPD” value ([1]; suspension in ethyl acetate, sample taken immediately when temperature reached 40° C.) was “form II”.
With `COC[C@@H](NC(C)=O)C(=O)NCc1ccccc1` [form II lacosamide, (R)-N-benzyl-2-acetamido-3-methoxypropionamide] the “temperature of transformation of form II to form III” value ([2]; heated at 10° C./min up to 100° C.) was “around 80 °C” and the “reversibility of transformation of form II to form III” value ([2]; sample cooled back to room temperature) was “completely reversible”.
